From patent EP0114387A1, “Bis-guanidine compound salts, their preparation and microbicidal use” (HOECHST AKTIENGESELLSCHAFT, priority 1982, dated 1984)
Like-named read-outs stand apart in the source and are kept apart here.

How the values were obtained:
Assay in all cases: Microbicidal activity, minimum inhibitory concentration to kill 10^6 germs per ml
Assay type in all cases: cell-based
Conditions in all cases: room temperature, 10^6 Keime pro ml, read-out: minimale Hemmkonzentration
Proteus mirabilis = test system: Proteus mirabilis
Protocol: (§1) Die mikrobiozide Wirkung der erfindungsgemäßen Verbindungen zeigt Tabelle I (µg Wirkstoff/ml Wasser; Kontaktzeit 24 und 48 h; Raumtemperatur). Die angegebenen Zahlen bedeuten die minimalen Hemmkonzentrationen, um die vorgelegte Keimzahl von 10^6 Keimen pro ml abzutöten.

[1] = test system: Desulfovibrio desulfuricans 85
Protocol: as §1

Klebsiella pneumoniae = test system: Klebsiella pneumoniae
Protocol: as §1

Staphylococcus aureus = test system: Staphylococcus aureus
Protocol: as §1

Aspergillus niger = test system: Aspergillus niger
Protocol: as §1

Candida albicans = test system: Candida albicans
Protocol: as §1

Pseudomonas aeruginosa = test system: Pseudomonas aeruginosa
Protocol: as §1

Escherichia coli = test system: Escherichia coli
Protocol: as §1

[2] = test system: Desulfovibrio desulfuricans 39
Protocol: as §1

Measured: MIC

CCCCCCCCCCN(CCCNC(=N)N)CCCNC(=N)N [Beispiel 3]
7.8 µg/mL: [1]; contact time 24 h | [1]; contact time 48 h | [2]; contact time 48 h
250 µg/mL: Proteus mirabilis; contact time 24 h | Staphylococcus aureus; contact time 24 h | Candida albicans; contact time 24 h | Escherichia coli; contact time 24 h
15.6 µg/mL: [2]; contact time 24 h
> 1000 µg/mL: Aspergillus niger; contact time 24 h | Aspergillus niger; contact time 48 h
500 µg/mL: Klebsiella pneumoniae; contact time 24 h | Pseudomonas aeruginosa; contact time 24 h
62.5 µg/mL: Proteus mirabilis; contact time 48 h | Klebsiella pneumoniae; contact time 48 h | Staphylococcus aureus; contact time 48 h | Candida albicans; contact time 48 h | Pseudomonas aeruginosa; contact time 48 h | Escherichia coli; contact time 48 h
